In publication PMC12537922 (Nature Communications, 2025):

Key:
PiAA7A = biological target: T1, PiAA7A (Phytophthora infestans, UniProt D0MXI7); conditions: co-substrate O2; 25 mM MES pH 6, 20 °C, 1 nM enzyme; sigmoidal (allosteric) model
T1 construct: gene PITG_02928

PiAA7D = biological target: T2, PiAA7D (Phytophthora infestans, UniProt D0N574); conditions: co-substrate O2; 25 mM MES pH 6, 20 °C, 1 nM enzyme; sigmoidal (allosteric) model
T2 construct: gene PITG_06591
T2 sequence (D0N574 27-508 limits assumed): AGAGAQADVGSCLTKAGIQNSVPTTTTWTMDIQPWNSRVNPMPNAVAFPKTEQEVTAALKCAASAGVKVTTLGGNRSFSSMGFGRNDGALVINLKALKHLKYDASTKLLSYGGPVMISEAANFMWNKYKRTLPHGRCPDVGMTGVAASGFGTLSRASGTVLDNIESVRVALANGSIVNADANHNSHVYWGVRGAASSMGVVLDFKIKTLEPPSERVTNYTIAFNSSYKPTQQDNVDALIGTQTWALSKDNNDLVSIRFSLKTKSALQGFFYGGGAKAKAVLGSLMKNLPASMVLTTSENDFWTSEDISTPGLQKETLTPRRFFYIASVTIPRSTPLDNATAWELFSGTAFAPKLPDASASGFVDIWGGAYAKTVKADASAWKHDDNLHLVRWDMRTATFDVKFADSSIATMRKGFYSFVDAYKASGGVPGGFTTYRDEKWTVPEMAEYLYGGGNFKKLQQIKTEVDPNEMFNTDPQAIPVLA

T1 sequence (D0MXI7 27-509 limits assumed): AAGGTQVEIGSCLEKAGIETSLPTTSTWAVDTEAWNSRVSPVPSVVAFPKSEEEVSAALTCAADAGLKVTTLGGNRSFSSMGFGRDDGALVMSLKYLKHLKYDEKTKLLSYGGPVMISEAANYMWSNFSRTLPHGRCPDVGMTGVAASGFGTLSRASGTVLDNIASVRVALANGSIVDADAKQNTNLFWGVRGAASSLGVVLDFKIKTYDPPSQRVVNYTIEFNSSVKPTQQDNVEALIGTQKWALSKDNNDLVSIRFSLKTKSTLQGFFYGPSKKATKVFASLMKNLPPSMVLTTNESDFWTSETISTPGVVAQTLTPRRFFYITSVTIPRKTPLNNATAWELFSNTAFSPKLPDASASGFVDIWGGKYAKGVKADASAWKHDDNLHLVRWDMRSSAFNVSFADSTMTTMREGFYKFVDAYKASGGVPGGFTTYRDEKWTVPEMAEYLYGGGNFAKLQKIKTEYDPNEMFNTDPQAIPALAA

SMILES: O=C(O)[C@H]1O[C@H](O[C@@H]2[C@H](O)[C@@H](O)[C@@H](O[C@@H]3[C@H](O)[C@@H](O)C(O)O[C@@H]3C(=O)O)O[C@@H]2C(=O)O)[C@H](O)[C@@H](O)[C@H]1O (some centres unmarked) [OG3]
- KM (PiAA7A): a sigmoidal (allosteric) model was found to be more appropriate for PiAA7A with OG3

SMILES: O=C(O)[C@H]1O[C@H](O[C@@H]2[C@H](O)[C@@H](O)[C@@H](O[C@@H]3[C@H](O)[C@@H](O)[C@@H](O[C@@H]4[C@H](O)[C@@H](O)C(O)O[C@@H]4C(=O)O)O[C@@H]3C(=O)O)O[C@@H]2C(=O)O)[C@H](O)[C@@H](O)[C@H]1O (some centres unmarked) [OG4]
- KM (PiAA7D): PiAA7D with OG4
